The source of these data is patent publication US8937089B2, “Synergistic mixtures of anthranilamide invertebrate pest control agents” (priority 2004, dated 2015).

For this experiment, the system named is beet armyworm (Spodoptera exigua). Nature of the experiment: Test I: control of beet armyworm, spray on tomato plants, excised leaves, % mortality and % feeding at 72 hours. Type of experiment: in vivo. The protocol: For evaluating control of beet armyworm (Spodoptera exigua), methomyl was in the liquid formulation as Lannate® LV (29% of active ingredient). Compound 1 was in a water dispersible granules (WDG) formulation with 35% active ingredient. The test compounds were dissolved in water. Enough water was added to make 100 ppm of active ingredient for each compound. Serial dilutions were made to obtain the appropriate concentrations. To obtain the desired mixture concentrations of each compound, twice the desired concentration of each of the two mixture partner compounds were mixed together in equal volumes.
The diluted solutions of the test compounds were sprayed to run-off on three-week-old tomato plants. The plants were placed on a rotating turntable sprayer (10 rpm). Test solutions were applied using a flat fan air-assisted nozzle (Spraying Systems 122440) at 10 psi (69 kPa). After each treated plant had dried, leaves were excised from the treated plant. The leaves were cut into pieces, which were placed singly into 5.5 cm-by-3.5 cm cells of a sixteen-cell plastic tray. Each cell contained a 2.5-cm square of moistened chromatography paper to prevent desiccation. One insect was placed in each cell. There two trays per treatment. […]

Molecules are shown by their SMILES.

Consider `CNC(=O)c1cc(Cl)cc(C)c1NC(=O)c1cc(Br)nn1-c1ncccc1Cl` [Compound 1, 3-bromo-N-[4-chloro-2-methyl-6-[(methylamino)carbonyl]phenyl]-1-(3-chloro-2-pyridinyl)-1H-pyrazole-5-carboxamide], for which the “% feeding” value came out at 9% (Compound 1 0.022 ppm); 6% (Compound 1 0.041 ppm); 2% (Compound 1 0.163 ppm); 2% (Compound 1 0.209 ppm); 1% (Compound 1 0.30 ppm); 1% (Compound 1 0.60 ppm). For the same molecule, the mortality at 0.022 ppm (Spodoptera exigua, Compound 1 0.022 ppm, read-out: % mortality (observed)) turned out to be 13%. For the same molecule, the mortality at 0.041 ppm (Spodoptera exigua, Compound 1 0.041 ppm, read-out: % mortality (observed)) was determined as 44%. The mortality at […] (Spodoptera exigua, Compound 1 0.076 ppm, read-out: % mortality (observed)) was 25%. The mortality at 0.163 ppm (Spodoptera exigua, Compound 1 0.163 ppm, read-out: % mortality (observed)) worked out at 35%. Moreover, the mortality at 0.209 ppm (Spodoptera exigua, Compound 1 0.209 ppm, read-out: % mortality (observed)) was 47%. In addition, the mortality at 0.3 ppm (Spodoptera exigua, Compound 1 0.30 ppm, read-out: % mortality (observed)) was determined as 59%. Besides, the mortality at 0.6 ppm (Spodoptera exigua, Compound 1 0.60 ppm, read-out: % mortality (observed)) was determined as 75%.
